Where two headings read alike, the source gives them in different places.
How the values were obtained:
Y156F-DAT [1] = target: T1, Y156F-DAT (Homo sapiens, UniProt Q01959, Y156F); settings: cited from earlier work
T1 construct: expressed in transfected cells; host or cells: COS-7

Y335A-DAT [2] = target: T2, Y335A-DAT (Homo sapiens, UniProt Q01959, Y335A); settings: cited from earlier work
T2 construct: expressed in transfected cells; host or cells: COS-7

DAT-XC/W84C mutant = target: T3, DAT-XC/W84C mutant (Homo sapiens, UniProt Q01959, C306A/W84C); experiment: Substituted cysteine scanning (SCAM) MTSEA-biotin biotinylation in HEK-293 cells; format: cell-based
T3 construct: expressed in transfected cells; host or cells: HEK-293
T3 sequence (Q01959 1-620 W84C/C306A): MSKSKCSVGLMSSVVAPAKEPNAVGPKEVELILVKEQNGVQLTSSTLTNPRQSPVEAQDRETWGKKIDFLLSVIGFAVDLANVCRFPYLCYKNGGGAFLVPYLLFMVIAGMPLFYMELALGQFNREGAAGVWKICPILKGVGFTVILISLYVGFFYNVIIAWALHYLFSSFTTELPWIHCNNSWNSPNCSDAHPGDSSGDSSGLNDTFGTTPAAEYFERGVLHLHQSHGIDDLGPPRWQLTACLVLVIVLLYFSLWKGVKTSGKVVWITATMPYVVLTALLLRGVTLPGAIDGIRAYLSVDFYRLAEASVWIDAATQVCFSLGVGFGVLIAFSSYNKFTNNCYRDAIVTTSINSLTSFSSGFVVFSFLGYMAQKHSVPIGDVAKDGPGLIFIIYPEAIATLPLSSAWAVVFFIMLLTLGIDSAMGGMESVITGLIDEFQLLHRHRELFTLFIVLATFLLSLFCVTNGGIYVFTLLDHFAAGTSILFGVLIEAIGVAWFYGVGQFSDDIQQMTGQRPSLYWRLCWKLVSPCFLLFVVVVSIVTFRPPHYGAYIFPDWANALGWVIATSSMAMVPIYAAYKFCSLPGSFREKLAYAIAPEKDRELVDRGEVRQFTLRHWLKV
Protocol: Briefly, HEK-293 cells were transiently transfected and cultured to confluency in a 6-well plate. The cells were washed with ice-cold PBS-CM (pH 7.4) twice and incubated at 4 °C with vehicle or sydnocarb (0.5 or 2 μM) for 10 min, followed by the addition of MTSEA-biotin (125 μM, final concentration). After 10-min incubation at 4 °C, the biotinylation was quenched by aspirating the liquid and washing the cells with 1-mM DTT in PBS-CM, followed by a final wash with PBS-CM only. The cells were lysed in 600 μL of TNE lysis buffer (pH 7.4) containing protease inhibitors (100×) for 40 min at 4 °C. The cells were collected and centrifuged at 12,000× g for 10 min at 4 °C. The supernatant was collected, of which 30 μL was mixed with DTT (0.5 M, 5 μL) and LDS Nu-page (15 μL) for the total lysate sample, and saved at −20 °C. Four hundred and fifty microliters of the supernatant were incubated overnight at 4 °C with 50 μL of 50% slurry of high-capacity neutravidin agarose resin. The beads containing “biotinylated” proteins were washed with ice-cold TNE lysis three times, followed by a final wash with PBS-CM, and then mixed with LDL Nu-page (15 μL), DTT (0.5 M, 5 μL), and water (30 μL). […] Densities of he DAT bands were analyzed with an Odyssey imaging system and associated ImageStudio software (LI-COR, Lincoln, NE, USA).

wild-type DAT = target: T4, wild-type DAT (Homo sapiens, UniProt Q01959); experiment: [3H]-DA uptake kinetic assay in COS-7 cells (Michaelis-Menten); format: cell-based; settings: vehicle 634.8 ± 84.62, four independent experiments
T4 construct: expressed in transfected cells; host or cells: COS-7
T4 sequence (Q01959 whole entry): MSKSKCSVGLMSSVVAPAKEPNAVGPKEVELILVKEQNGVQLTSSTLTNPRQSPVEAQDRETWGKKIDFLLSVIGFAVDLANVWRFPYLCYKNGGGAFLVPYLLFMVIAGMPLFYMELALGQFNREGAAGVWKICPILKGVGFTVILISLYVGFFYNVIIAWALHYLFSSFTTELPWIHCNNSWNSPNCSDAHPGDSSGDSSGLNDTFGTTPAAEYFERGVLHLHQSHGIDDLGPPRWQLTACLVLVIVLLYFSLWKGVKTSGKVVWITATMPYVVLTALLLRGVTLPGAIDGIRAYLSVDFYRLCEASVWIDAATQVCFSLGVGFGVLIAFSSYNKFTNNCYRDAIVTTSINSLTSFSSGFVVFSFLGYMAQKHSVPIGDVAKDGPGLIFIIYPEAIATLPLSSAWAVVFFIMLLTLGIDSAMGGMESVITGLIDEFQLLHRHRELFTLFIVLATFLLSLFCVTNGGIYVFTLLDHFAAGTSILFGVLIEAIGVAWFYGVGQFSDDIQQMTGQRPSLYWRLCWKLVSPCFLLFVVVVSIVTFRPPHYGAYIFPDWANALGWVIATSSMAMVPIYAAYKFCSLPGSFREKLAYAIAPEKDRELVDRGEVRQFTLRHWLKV
Protocol: Transport assays were performed as described previously. Briefly, COS-7 cells were transfected and plated in 96-well plates. Uptake experiments were performed 2 days after transfection. The media was removed, and the cells were washed with PBS (137-mM NaCl, 2.7-mM KCl, 4.3-mM Na2HPO4, and 1.4-mM KH2PO4, pH 7.4) containing 0.1-mM CaCl2, 1-mM MgCl2, […], and […] (PBSCM). Following washing, a constant concentration of radiolabeled substrate (50-nM [^3H]-DA) and increasing concentrations of unlabeled substrate (0.05–100-μM DA) were added, and the uptake was allowed to continue for 10 min at room temperature. The uptake was terminated by washing twice with PBS-CM. The cells were solubilized in scintillation cocktail and counted on a microplate scintillation and luminescence counter (PerkinElmer, Waltham, MA, USA). Background was obtained from non-transfected cells and subtracted. Data were fitted to a Michaelis−Menten equation using nonlinear regression to obtain Km and Vmax.

Y335A-DAT [3] = target: T2, Y335A-DAT; experiment: DA uptake inhibition assay in COS-7 cells expressing DAT mutant; format: cell-based
Protocol: (§1) Transiently transfected COS-7 cells (expressing hDAT, hNET, or hSERT) were plated in 96-well plates. Uptake experiments were performed 2 days later. The media was removed, and the cells were washed with PBS-CM. Following washing, the cells were incubated for 10 min with various concentrations of sydnocarb, and the uptake was initiated by adding [^3H]-dopamine to a final concentration of 25 nM. The uptake was allowed to continue for 10 min at room temperature and was terminated by washing twice with PBS-CM. The cells were solubilized in a scintillation cocktail and counted on a microplate scintillation and luminescence counter (PerkinElmer, Waltham, MA, USA). Data were fitted to a Hill equation by a nonlinear regression analysis to obtain the IC50 values.

Y156F-DAT [4] = target: T1, Y156F-DAT; experiment: as above; format: cell-based
Protocol: as §1

hDAT = target: T5, hDAT (Homo sapiens, UniProt Q01959); experiment: [3H]-dopamine transport inhibition assay in transiently transfected COS-7 cells; format: cell-based; settings: for IC50: mean ± SEM
T5 construct: expressed in transfected cells; host or cells: COS-7
T5 sequence (Q01959 whole entry): as above
Protocol: as §1

hSERT = target: T6, hSERT (Homo sapiens, UniProt P31645); experiment: Radioactive neurotransmitter transport inhibition assay in transiently transfected COS-7 cells; format: cell-based; settings: hSERT transiently transfected COS-7 cells, mean ± SEM, three independent experiments (Figure 1A)
T6 construct: expressed in transfected cells; host or cells: COS-7
T6 sequence (P31645 whole entry): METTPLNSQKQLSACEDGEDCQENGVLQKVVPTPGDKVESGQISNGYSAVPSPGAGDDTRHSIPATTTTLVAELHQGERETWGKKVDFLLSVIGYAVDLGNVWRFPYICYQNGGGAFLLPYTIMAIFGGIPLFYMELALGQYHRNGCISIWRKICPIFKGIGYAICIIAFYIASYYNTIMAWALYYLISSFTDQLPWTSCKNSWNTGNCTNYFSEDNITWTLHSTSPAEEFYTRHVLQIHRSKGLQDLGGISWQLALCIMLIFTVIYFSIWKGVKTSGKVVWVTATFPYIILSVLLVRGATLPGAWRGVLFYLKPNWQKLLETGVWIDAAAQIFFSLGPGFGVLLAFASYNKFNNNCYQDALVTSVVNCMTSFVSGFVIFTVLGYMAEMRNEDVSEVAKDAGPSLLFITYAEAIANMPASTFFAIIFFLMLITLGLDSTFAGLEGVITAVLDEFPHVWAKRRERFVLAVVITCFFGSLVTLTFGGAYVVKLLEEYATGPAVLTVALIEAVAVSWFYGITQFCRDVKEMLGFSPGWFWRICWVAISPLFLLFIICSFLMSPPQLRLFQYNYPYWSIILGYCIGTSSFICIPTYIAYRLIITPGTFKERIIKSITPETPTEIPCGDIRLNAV
Protocol: as §1

hNET = target: T7, hNET (Homo sapiens, UniProt P23975); experiment: as above; format: cell-based; settings: hNET transiently transfected COS-7 cells; mean ± SEM, three independent experiments (Figure 1A)
T7 construct: expressed in transfected cells; host or cells: COS-7
T7 sequence (P23975 whole entry): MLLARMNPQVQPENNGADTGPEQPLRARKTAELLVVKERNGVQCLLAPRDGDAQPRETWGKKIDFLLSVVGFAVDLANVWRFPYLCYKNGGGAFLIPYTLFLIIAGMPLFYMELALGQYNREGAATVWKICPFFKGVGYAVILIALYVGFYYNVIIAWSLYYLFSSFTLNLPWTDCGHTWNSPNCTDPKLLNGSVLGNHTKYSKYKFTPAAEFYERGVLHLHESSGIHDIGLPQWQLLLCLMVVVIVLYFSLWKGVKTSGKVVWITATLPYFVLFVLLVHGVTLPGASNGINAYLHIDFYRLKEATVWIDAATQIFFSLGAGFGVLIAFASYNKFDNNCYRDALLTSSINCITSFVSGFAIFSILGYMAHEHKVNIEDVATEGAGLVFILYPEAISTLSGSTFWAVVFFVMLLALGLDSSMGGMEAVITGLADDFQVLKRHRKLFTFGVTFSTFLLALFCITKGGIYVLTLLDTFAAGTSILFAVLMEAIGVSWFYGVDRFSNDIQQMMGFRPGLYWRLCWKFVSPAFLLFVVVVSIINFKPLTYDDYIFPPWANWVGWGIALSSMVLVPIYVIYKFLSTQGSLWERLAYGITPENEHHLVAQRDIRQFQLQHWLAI
Protocol: as §1

T2 sequence (Q01959 whole entry Y335A): as the sequence (Q01959 whole entry) above, with Y335A counted along it
T1 sequence (Q01959 whole entry Y156F): as the sequence (Q01959 whole entry) above, with Y156F counted along it

CCCCN1[C@@H]2CC[C@H]1CC(OC(c1ccc(F)cc1)c1ccc(F)cc1)C2 (stereo partly shown) [JHW-007]
effect of Y156F mutation on potency (Y156F-DAT [1]): significantly reduced

COC(=O)[C@H]1[C@@H](OC(=O)c2ccccc2)C[C@@H]2CC[C@H]1N2C [cocaine]
effect of Y335A mutation on potency (Y335A-DAT [2]): markedly impaired | effect of Y156F mutation on binding affinities (Y156F-DAT [1]): unaffected | labeling of W84C with MTSEA-biotin (DAT-XC/W84C mutant; coincubation with 100 µM cocaine (negative control)): not affected

CC(Cc1ccccc1)[n+]1cc([N-]C(=O)Nc2ccccc2)on1 (stereo not shown) [sydnocarb]
Vmax of DAT-mediated [3H]-DA uptake (wild-type DAT; in the presence of 0.5 µM Sydnocarb): 455.6 ± 89.6 femtomole/min/well | Vmax of DAT-mediated [3H]-DA uptake (wild-type DAT; in the presence of 2.0 µM Sydnocarb): 195 ± 80.7 femtomole/min/well | reduction of potency for Y335A-DAT compared with WT-DAT (Y335A-DAT [3]; COS-7 cells): 3.5 fold | IC50 (Y335A-DAT [3]; Y335A-DAT-transfected COS-7 cells, mean ± SEM, three independent experiments): 1420 ± 201 nM | change in potency, Y156F-DAT versus WT-DAT (Y156F-DAT [4]; COS-7 cells): no significant changes | IC50 (Y156F-DAT [4]; Y156F-DAT-transfected COS-7 cells, mean ± SEM, three independent experiments): 262 ± 118 nM | IC50 (hDAT; WT-DAT-transfected COS-7 cells, mutant comparison (Figure 6), three independent experiments, read-out: IC50, DA uptake inhibition): 439 ± 135 nM | fold more potent towards hDAT than towards hNET (hDAT; from dose-response IC50 values): 70 fold | fold more potent towards hDAT than towards hSERT (hDAT; from dose-response IC50 values): 1000 fold | IC50 (hDAT; hDAT transiently transfected COS-7 cells, three independent experiments (Figure 1A), listed as Sydnocarb, read-out: IC50, transport inhibition): 493 ± 140 nM | IC50 (hDAT; hDAT transiently transfected COS-7 cells, three independent experiments (Figure 1A), read-out: IC50, transport inhibition): 490 ± 140 nM | IC50 (hSERT): 495000 ± 17000 nM | IC50 (hSERT; listed as Sydnocarb): 495000 ± 17000 nM | IC50 (hNET): 34900 ± 14100 nM | biotinylation of W84C by MTSEA-biotin (DAT-XC/W84C mutant; coincubation with 1 µM sydnocarb, four independent experiments): significantly decreased
